Experimental data reported in article PMC7139691, “Effect of Arginine on Chaperone-Like Activity of HspB6 and Monomeric 14-3-3ζ” (International Journal of Molecular Sciences, 2020).

Biological target: T1, HspB6 (Homo sapiens, UniProt O14558)
T1 construct: recombinant wild type; small oligomers of 55-60 kDa (dimers and tetramers)
T1 sequence (O14558 1-160): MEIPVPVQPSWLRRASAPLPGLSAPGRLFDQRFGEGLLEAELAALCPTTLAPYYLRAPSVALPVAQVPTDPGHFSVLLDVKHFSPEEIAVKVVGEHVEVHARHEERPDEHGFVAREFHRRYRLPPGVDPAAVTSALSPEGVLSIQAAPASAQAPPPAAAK
Test: intrinsic tryptophan fluorescence titration
Format: binding
Conditions: read-out: Kdiss

## N=C(N)NCCC[C@H](N)C(=O)O [arginine]
  Kd: 10 ± 3 mM
